Source: ChEMBL document CHEMBL1157629, “Acetylcholinesterase inhibitors from the toadstool Cortinarius infractus” (Bioorg Med Chem, 2010)
Activity calls are given as the source filed them. No cut-off for these calls is given here.

Key:
[1] = Inhibition of amyloid beta (1-40) self-aggregation at 25 uM by thioflavin T fluorescence assay
[2] = biological target: Cholinesterase (Equus caballus) (UniProt P81908); assay: Inhibition of equine serum BChE at 100 uM by Ellman's method
[3] = Cytotoxicity against human HepG2 cells assessed as cell viability at 10 uM after 24 hrs; assay type: cell-based; conditions: read-out: Activity
SH-SY5Y [4] = assay: Cytotoxicity against human SH-SY5Y cells assessed as LDH release at 10 uM after 24 hrs; assay type: cell-based
Acetylcholinesterase = biological target: T1, Acetylcholinesterase (Bos taurus, UniProt P23795)
T1 sequence (P23795 whole entry): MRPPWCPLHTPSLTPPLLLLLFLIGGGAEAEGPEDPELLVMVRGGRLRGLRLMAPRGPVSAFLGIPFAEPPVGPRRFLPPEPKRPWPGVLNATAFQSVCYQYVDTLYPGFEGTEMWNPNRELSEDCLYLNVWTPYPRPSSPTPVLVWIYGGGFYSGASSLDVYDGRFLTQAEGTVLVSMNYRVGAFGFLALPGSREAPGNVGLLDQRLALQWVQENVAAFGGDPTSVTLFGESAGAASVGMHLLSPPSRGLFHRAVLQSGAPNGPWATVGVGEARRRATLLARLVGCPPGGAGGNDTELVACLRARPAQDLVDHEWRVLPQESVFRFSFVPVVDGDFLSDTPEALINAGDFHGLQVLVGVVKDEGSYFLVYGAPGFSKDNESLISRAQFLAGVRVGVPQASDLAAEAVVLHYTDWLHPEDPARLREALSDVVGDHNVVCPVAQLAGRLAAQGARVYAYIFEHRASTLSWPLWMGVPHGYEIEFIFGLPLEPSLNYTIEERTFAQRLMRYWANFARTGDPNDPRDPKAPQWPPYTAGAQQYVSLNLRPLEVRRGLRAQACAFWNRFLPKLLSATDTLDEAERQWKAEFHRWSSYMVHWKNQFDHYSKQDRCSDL
Description: Inhibition of bovine AChE by Elman's method

HepG2 [5] = assay: Cytotoxicity against human HepG2 cells assessed as LDH release at 100 uM after 24 hrs; assay type: cell-based; conditions: hepg2, 24 h
[6] = Cytotoxicity against human SH-SY5Y cells assessed as cell viability at 10 uM after 24 hrs; assay type: cell-based; conditions: read-out: Activity
[7] = Cytotoxicity against human HepG2 cells assessed as cell viability at 100 uM after 24 hrs; assay type: cell-based; conditions: read-out: Activity
SH-SY5Y [8] = assay: Cytotoxicity against human SH-SY5Y cells assessed as LDH release at 100 uM after 24 hrs; assay type: cell-based
[9] = Cytotoxicity against human SH-SY5Y cells assessed as cell viability at 100 uM after 24 hrs; assay type: cell-based; conditions: read-out: Activity
HepG2 [10] = assay: Cytotoxicity against human HepG2 cells assessed as LDH release at 10 uM after 24 hrs; assay type: cell-based; conditions: hepg2, 24 h

Sequence of Cholinesterase (Equus caballus) (P81908 whole entry): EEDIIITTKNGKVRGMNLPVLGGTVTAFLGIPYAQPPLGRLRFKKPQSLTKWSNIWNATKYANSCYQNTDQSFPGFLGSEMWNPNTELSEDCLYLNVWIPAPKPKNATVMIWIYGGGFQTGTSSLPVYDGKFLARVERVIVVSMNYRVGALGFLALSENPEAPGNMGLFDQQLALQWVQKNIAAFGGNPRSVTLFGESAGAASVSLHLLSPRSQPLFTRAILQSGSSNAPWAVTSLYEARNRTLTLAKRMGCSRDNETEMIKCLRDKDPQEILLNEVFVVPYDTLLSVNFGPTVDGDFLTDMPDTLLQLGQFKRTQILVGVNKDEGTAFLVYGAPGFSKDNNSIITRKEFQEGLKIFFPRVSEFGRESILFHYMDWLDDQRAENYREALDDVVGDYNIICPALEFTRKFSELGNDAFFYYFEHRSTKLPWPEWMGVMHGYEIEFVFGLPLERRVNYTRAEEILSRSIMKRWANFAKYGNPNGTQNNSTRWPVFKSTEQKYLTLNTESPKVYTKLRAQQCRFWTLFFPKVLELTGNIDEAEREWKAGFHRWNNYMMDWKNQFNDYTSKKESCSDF

O=c1cc2c3c4c(cc[n+]3CCC2)c2ccccc2n14.[Cl-] [INFRACTOPICRIN]
inhibition [1]: 50% | inhibition [2]: inactive | viability at 24 h, 10 µM [3]: 100% | Activity (SH-SY5Y [4]): -0.07% | IC50 (Acetylcholinesterase): 9.72 µM | Activity (HepG2 [5]): 1.48% | viability at 24 h, 10 µM [6]: 97.1% | viability at 24 h, 100 µM [7]: 99.1% | Activity (SH-SY5Y [8]): 1.33% | viability at 24 h, 100 µM [9]: 97.7% | Activity (HepG2 [10]): 2.23%

O=c1cc2c3c4c(cc[n+]3CCC2)c2cc(O)ccc2n14.[Cl-]
inhibition [1]: Active | inhibition [2]: inactive | viability at 24 h, 10 µM [3]: 98.7% | Activity (SH-SY5Y [4]): -1.86% | IC50 (Acetylcholinesterase): 12.7 µM | Activity (HepG2 [5]): 0.56% | viability at 24 h, 10 µM [6]: 96.7% | viability at 24 h, 100 µM [7]: 101% | Activity (SH-SY5Y [8]): 0.97% | viability at 24 h, 100 µM [9]: 98.3% | Activity (HepG2 [10]): 0.13%
